# Measurements from US20160008367A1, “Combination Comprising a Cyclin Dependent Kinase 4 or Cyclin Dependent Kinase (CDK4/6) Inhibitor for Treating Cancer” (Novartis AG, priority 2010, published 2016).
# What was measured:
# [1] = tested on: Jeko-1 xenograft; test: Jeko-1 mantle cell lymphoma xenograft model; type: in vivo; conditions: 35 day treatment period, single agents
# From the text: A Jeko-1 xenograft model was used to measure anti-tumor activity in a 35 day treatment period of Compound A1, Compound B1, and the combination of Compounds A1 and B1. Significant anti-tumor activity was observed.
# [2] = tested on: Jeko-1 mantle cell lymphoma cells; test: Cell Titer-Glo cell viability assay, single agents and combinations; type: cell-based; conditions: 72 hrs
# Description: The Cell Titer-Glo Luminscent Cell Viability Assay (Promega#G7572) generates a luminescent signal that is proportional to the number of metabolically active cells present in a reaction, based on the quantitation of ATP. Cell Titer-Glo Reagent was prepared by thawing a vial of Cell Titer-Glo Buffer in a 37° C. water bath. The entire bottle of buffer was then added to the bottle of lyophilized Cell Titer-Glo Substrate provided in the kit. Lyophilized substrate was allowed to dissolve; the solution was then mixed by inversion and was ready for use. Jeko-1 cells were diluted to a density of 200,000 cells/mL and cultured in T250 flask. Before treatment (time 0), 3×100 micro liter aliquots were removed and placed into a black 96 well plate with clear bottom (Costar#3904). 50 uL of CTG reagent was added to each well. The plate was placed on an Orbital Shaker, protected from light and incubated using setting 4 for 30 minutes at RT. The plate was then read using the Envision Luminometer, and results exported. The cells remaining in the T250 flasks were either left untreated or treated with single agents or in combinations. […] Results were exported and analyzed using Microsoft Excel. The percentage of viable cells as compared to control growth was calculated using following equation: […]
# A is the CTG read under treatment condition
# B is the CTG read for Time 0 cells
# C is CTG read for 72 hr untreated cells […]
# [3] = tested on: PANC-1 pancreatic carcinomas; test: PANC-1 pancreatic carcinoma xenograft model; type: in vivo, nude mice; conditions: PANC-1 xenograft, po x 21 days
# Description: The PANC-1 pancreatic carcinomas used for implantation were maintained by serial engraftment in nude mice. […] Tumor size, in mm3, was calculated from: Tumor Volume=(w2×l)/2 where w=width and l=length, in mm, of the tumor. […] Group 1 mice received the Compound A1 and Compound B1 vehicles, and served as controls for all analyses. […] Each animal was euthanized when tumor volume reached 1200 mm3, or on the last day of the study ([…]). For each animal whose tumor reached the endpoint volume, the time to endpoint (TTE) was calculated by the following equation: TTE=(log10(endpoint volume)-b)/m Where TTE is expressed in days, endpoint volume is in mm3, b is the intercept, and m is the slope of the line obtained by linear regression of a log-transformed tumor growth data set. […] The calculated TTE is usually less than the day on which an animal is euthanized for tumor size. […] Treatment efficacy was determined from tumor growth delay (TGD), which is defined as the increase in the median TTE for a treatment group compared with the control group: TGD=T-C, expressed in days, or as a percentage of the median TTE of the control group: % TGD=[(T-C)/C]×100, where: T=median TTE for a treatment group, C=median TTE for the designated control group.
Compound,anti-tumor activity [1],"% cell growth compared to the vehicle control ([2]; mTOR inhibitor alone at 1, 2.5 and 5 nM (all three concentrations))",anti-tumor activity ([3]; Compound B1 10 mg/kg qd),% cell growth compared to the vehicle control ([2]; 100 nM CDK4/6 inhibitor alone) [%],anti-tumor activity ([3]; Compound A1 250 mg/kg qd)
"COC1CC2CC[C@@H](C)C(O)(O2)C(=O)C(=O)N2CCCCC2C(=O)O[C@H](C(C)C[C@@H]2CCC(OCCO)[C@H](OC)C2)CC(=O)C(C)/C=C(\C)C(O)C(OC)C(=O)[C@H](C)CC(C)/C=C/C=C/C=C/1C (stereo in doubt) [Compound B1, (1R,9S,12S,15R,16E,18R,19R,21R,23S,24E,26E,28E,30S,32S,35R)-1,18-dihydroxy-12-{(1R)-2-[(1S,3R,4R)-4-(2-hydroxyethoxy)-3-methoxycyclohexyl]-1-methylethyl}-19,30-dimethoxy-15,17,21,23,29,35-hexamethyl-11,36-dioxa-4-aza-tricyclo[30.3.1.04,9]hexatriaconta-16,24,26,28-tetraene-2,3,10,14,20-pentaone]",had anti-tumor activity,approximately 30%,neither Compound A1 nor Compound B1 had significant anti-tumor activity,,
"CN(C)C(=O)c1cc2cnc(Nc3ccc(N4CCNCC4)cn3)nc2n1C1CCCC1 [Compound A1, 7-Cyclopentyl-2-(5-piperazin-1-yl-pyridin-2-ylamino)-7H-pyrrolo[2,3-d]pyrimidine-6-carboxylic acid dimethylamide]",had anti-tumor activity,,,70,neither Compound A1 nor Compound B1 had significant anti-tumor activity
